Source: PubChem BioAssay AID488786 (NMMLSC, 2010)
The source made the active and inactive calls.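 The calls were made as follows: active = compounds whose fitted off-rate of the fluorescent probe exceeds 0.05 per second; inactive = the rest.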

Target: Integrin alpha-4 (Homo sapiens) (UniProt P13612)
Experiment: VLA-4 ligand dissociation kinetics with analogs – U937 cells, flow cytometry, mechanism study for VLA-4 allosteric modulator project, SAR follow-up (AID 488786)
Details: LDV-FITC dissociation rate; for dissociation rate: at 100 µM, active compounds read high

Chain of Integrin alpha-4 (Homo sapiens) (P13612 whole entry, looked up): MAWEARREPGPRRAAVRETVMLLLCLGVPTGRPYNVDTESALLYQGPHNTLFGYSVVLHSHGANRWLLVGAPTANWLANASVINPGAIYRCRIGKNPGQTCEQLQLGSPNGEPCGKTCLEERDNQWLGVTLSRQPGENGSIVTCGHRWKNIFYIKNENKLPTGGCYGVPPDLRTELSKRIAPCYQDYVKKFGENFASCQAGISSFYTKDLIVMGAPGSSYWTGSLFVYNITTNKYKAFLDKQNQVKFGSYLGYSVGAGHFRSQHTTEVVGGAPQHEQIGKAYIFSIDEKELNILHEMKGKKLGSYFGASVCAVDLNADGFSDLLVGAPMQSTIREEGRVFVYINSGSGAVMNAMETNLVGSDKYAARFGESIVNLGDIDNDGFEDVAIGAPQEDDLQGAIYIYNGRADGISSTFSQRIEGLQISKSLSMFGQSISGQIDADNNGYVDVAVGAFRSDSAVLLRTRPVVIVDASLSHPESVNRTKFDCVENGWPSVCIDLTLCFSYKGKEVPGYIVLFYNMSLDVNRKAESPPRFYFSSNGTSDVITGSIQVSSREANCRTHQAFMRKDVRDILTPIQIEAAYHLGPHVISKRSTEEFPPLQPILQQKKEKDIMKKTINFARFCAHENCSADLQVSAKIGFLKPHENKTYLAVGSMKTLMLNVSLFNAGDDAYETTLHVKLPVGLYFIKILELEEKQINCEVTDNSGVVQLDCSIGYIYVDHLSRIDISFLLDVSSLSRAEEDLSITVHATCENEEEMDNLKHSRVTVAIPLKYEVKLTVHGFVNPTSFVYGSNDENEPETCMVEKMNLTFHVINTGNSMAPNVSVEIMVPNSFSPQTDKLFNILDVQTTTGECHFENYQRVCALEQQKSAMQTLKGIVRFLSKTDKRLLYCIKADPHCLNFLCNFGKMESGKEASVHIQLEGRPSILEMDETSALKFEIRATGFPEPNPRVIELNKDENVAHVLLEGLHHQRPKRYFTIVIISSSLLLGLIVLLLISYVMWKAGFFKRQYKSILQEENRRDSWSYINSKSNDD

Row | Compound | outcome | dissociation rate
1 | CCOCCCNC(=O)/C(C#N)=C/c1ccc(Cl)c([N+](=O)[O-])c1 | inactive | 
2 | COc1cccc(-c2sc3ccccc3c2-c2ccc(OCCN(C)C)cc2)c1 |  | 0.06 s⁻¹
3 | COc1ccc(-c2sc3ccccc3c2-c2ccc(OCCN(C)C)cc2)cc1 |  | 0.08 s⁻¹
4 | c1ccc2c(-c3ccc(OCCN4CCCCC4)cc3)c(-c3ccsc3)sc2c1 |  | 0.016 s⁻¹ (inactive)
5 | c1ccc2c(-c3ccc(OCCN4CCCC4)cc3)c(-c3ccsc3)sc2c1 |  | 0.048 s⁻¹ (inactive)
6 | O=C1NC(=O)C2(N1)c1ccccc1-c1ccccc12 | inactive | 
7 | COC(=O)C1OC2(OC1C(=O)OC)c1ccccc1-c1ccccc12 (centres undefined) | inactive | 
8 | FC(F)Oc1ccc(C2=Nn3c(nnc3-c3ccccc3Cl)SC2)cc1OCC1CC1 | inactive | 
9 | COc1cccc(-c2sc3ccccc3c2-c2ccc(OCCN3CCCC3)cc2)c1 |  | 0.065 s⁻¹
10 | c1ccc(-c2sc3ccccc3c2-c2ccc(OCCN3CCCC3)cc2)cc1 |  | 0.055 s⁻¹
11 | CN(C)CCOc1ccc(-c2c(-c3ccccc3)sc3ccccc23)cc1 |  | 0.06 s⁻¹
12 | CCOC(=O)/C(=C\c1ccc(OC(F)F)cc1)C1=Nn2c(nnc2-c2ccc(Cl)cc2)SC1 | inactive | 
13 | O=C(COc1ccc(/C=N/NC(=O)c2cc3ccccc3o2)cc1Cl)Nc1ccccc1 | inactive | 
14 | CC(NC(=O)/C(C#N)=C/c1ccc(Cl)c([N+](=O)[O-])c1)c1ccccc1 (centres undefined) | inactive | 
15 | Cc1ccc(NC(=O)c2cc(N3C(=O)CCC3=O)ccc2N2CCOCC2)cc1 | inactive | 
16 | COC(=O)[C@@H]1[C@@H](C(=O)OC)C2(c3ccccc3-c3ccccc32)N(c2ccc(Cl)cc2)N1C#N | inactive | 
17 | COC(=O)C1CN(C#N)N(c2ccc(Cl)cc2)C12c1ccccc1-c1ccccc12 (centres undefined) | inactive | 
18 | Cc1ccc(NC(=O)c2cc(N3C(=O)CCC3=O)ccc2N2CCOCC2)cc1Cl | inactive | 
19 | CCOC(=O)COc1ccccc1/C=C\[N+](=O)[O-] | inactive | 
